Assay results published in US12285459B2, “Saposin-A derived peptides and uses thereof” (CHILDREN'S MEDICAL CENTER CORPORATION, priority 2011, dated 2025).

Key:
[1] = system: MDA-MB-231-LM2 breast cancer cells; assay: Orthotopic MDA-MB-231-LM2 breast cancer model, lung metastasis after primary tumor resection; assay type: in vivo, SCID mice
Description: For orthotopic breast cancer cell injections, 5×10^6 viable MDA-MB-231 or its metastatic variant MDA-MB-LM2 cells, were injected into CB-17 SCID mice fat pads in a volume of 0.1 ml. Tumor growth and pulmonary metastases (following resection of primary tumor) were monitored by live animal bioluminescence imaging (Xenogen) once per week. For orthotopic prostate cancer cell injections, 2×10^6 viable LN4 or LN4-psap cells were injected into the prostate gland of mice. For in vivo determination of the metastatic burden, mice were anaesthetized and injected intraperitoneally with 75 mg/kg of D-luciferin (100 uL of 30 mg/mL in PBS). Metastatic growth was monitored over time using bioluminescence imaging performed with mice in a supine position 5 min after D-luciferin injection with a Xenogen IVIS system coupled to Living Image acquisition and analysis software (Xenogen). For BLI plots, photon flux was calculated for each mouse by using the same circular region of interest encompassing the thorax of the mouse.
The ability of the DWLPK (SEQ ID NO: 4) peptide to inhibit metastasis was tested in an orthotopic, clinically relevant, model of breast cancer metastatic to the lung. […] Lung metastases were assessed 3 weeks after the primary tumor removal (week 6 after primary tumor injection).

[2] = system: Tsp-1 and p53 expression in lungs; assay: Tumor-free mice given PC3M-LN4 conditioned media plus peptide; Tsp-1/p53 in tissue by western blot; assay type: in vivo, C57Bl6 mice; details: PC3M-LN4 CM in combination with peptide; Western blot, FIG. 3
Description: For tumor-free analysis C57Bl6 mice were treated with 200 uL of PC3M-LN4 media alone or in combination with peptides described above at dose of 30 mg/kg/day for 5 days. After treatment the animals were sacrificed and the lungs were harvested, lysed and analyzed for Tsp-1 and p53 protein levels as described previously (Kang et al).
It was sought to determine whether there was a smaller domain within saposin A that contained the p53/Tsp-1 stimulating activity. […] C57Bl6 mice (5-6 wks old) were injected daily with 300 uL of serum free DMEM, conditioned media (CM) from non-metastatic PC3 cells, CM from metastatic PC3M-LN4 cells and PC3M-LN4 CM plus 30 mg/kg of the pegylated 6 amino acid polypeptide (PEG2000-CDWLPK (SEQ ID NO: 46)) or 30 mg/kg of the pegylated 18 amino acid polypeptide (PEG2000-[…] (SEQ ID NO: 47)). After 9 days the mice were euthanized and the lungs and livers harvested and either fixed in formalin or lysed for Western blot analysis.
Finally, the effect of substituting D-amino acids at different residues of the 4-amino acid peptide was analyzed. By Western blot analysis it was observed that substituting the first and third or second and fourth residues, in combination, had no effect on the Tsp-1 stimulating activity in vitro. These peptides were then tested in the tumor-free animal model described above. The normal 4-amino acid peptide and the D-amino acid substituted peptides were injected in combination with conditioned media from PC3M-LN4 cells in adult C57Bl6 mice for 4 days at a dose of 10 or 30 mg/kg/day via i.p. injection. Mice were sacrificed 24 hours after the treatment on day 4. The lungs of these mice were harvested and analyzed the Tsp-1 expression by Western blot analysis. […]
Methods: 18 C57Bl6 mice were injected with Ac-dWlP-amide (SEQ ID NO: 132) at a dose of 30 mg/kg in a volume of 100 μL via intraperitoneal (i.p) injections in serum starved conditioned media from PC3M-LN4 prostate cancer cells. […] The relative intensity of the Tsp-1 (normalized to β-Actin) bands were determined using a Bio-Rad Chemi-Doc XRS system.

[3] = system: Lewis Lung Carcinoma cells; assay: Lewis Lung Carcinoma tail vein lung metastasis model, bioluminescence; assay type: in vivo, C57Bl6 mice
Description: C57Bl6 mice were injected with 1×10^6 Lewis Lung Carcinoma cells via tail vein. After 10 days the animals were treated with either PBS or a peptide corresponding to residues 36-40 of saposin A at a dose of 30 mg/kg/day via i.p. injection. After 16 days of treatment all animals were sacrificed, lungs were weighed and harvested. Tissues were either fixed in NBF, or lysed and analyzed for Tsp-1 and p53 expression by western blot analysis.
1×10^6 luciferase-expressing LLC cells were then injected via tail vein into C57Bl6 mice. After 5 days the mice were treated with the 5-amino acid peptide at a dose of 30 mg/kg/day via i.p. injection. After 29 days the animals were sacrificed, at which point the average luciferase activity in the peptide treated mice, as measured by a Xeongoen IVIS system, was 2% that of the luciferase activity in mice treated with a scrambled peptide (FIG. 8).
For experimental metastasis, 7-week old C57BL/6 mice were injected via tail vein with 1×10^5 luciferase-labeled LLC cells. Metastatic growth was monitored over time using bioluminescence imaging performed with mice in a supine position 5 min after D-luciferin injection with a Xenogen IVIS system coupled to Living Image acquisition and analysis software (Xenogen). For BLI plots, photon flux was calculated for each mouse by using the same circular region of interest encompassing the thorax of the mouse.

**Q.** “DWLPK [5-amino acid peptide corresponding to residues 36-40 of saposin A]” was tested. Which “Tsp-1 in the Gr1+ myeloid compartment of lungs” value ([1]; compared to scrambled peptide) did it give?
**A.** persistent Tsp-1 upregulation

**Q.** And the “reduction of the metastatic burden in the lungs” value ([1]; daily treatment after resection, 3 weeks after primary tumor removal, versus scramble peptide)?
**A.** 50%

**Q.** What about the “Tsp-1 and p53 expression in the lungs above basal levels” value [2] of the same substance?
**A.** 6 fold

**Q.** What about the “average luciferase activity relative to mice treated with a scrambled peptide” value ([3]; 30 mg/kg/day i.p. from day 5, after 29 days, IVIS) of the same substance?
**A.** 2%

**Q.** And the “lung metastases by bioluminescence imaging” value ([3]; LLC-luc cells via tail vein, compared to scrambled peptide)?
**A.** dramatically reduced lung metastases
